Measurements published in patent US20230312528A1, “2-OXO-IMIDAZOLIDINE-4-CARBOXAMIDES AS NAV1.8 INHIBITORS” (Merck Sharp & Dohme LLC, priority 2020, published 2023).

Each compound was assayed against human NaV1.8 (Homo sapiens (Human), UniProt Q9Y5Y9) (assay: Nav1.8 Qube automated patch-clamp assay). Settings: human NaV1.8 stably expressed in HEK 293 cells; automated 384-well patch-clamp; resting or inactivated state not specified.
Format: cell-based
Method in brief: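 Human NaV1.8 in HEK293 cells, automated whole-cell patch clamp at room temperature: 1 Hz train of ten 20 ms pulses to 10 mV from −90 mV, repolarization to −67 mV. First- and tenth-pulse peak currents gave resting and inactivated-state IC50 values via Hill fits.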

Chain of human NaV1.8 (Q9Y5Y9 whole entry): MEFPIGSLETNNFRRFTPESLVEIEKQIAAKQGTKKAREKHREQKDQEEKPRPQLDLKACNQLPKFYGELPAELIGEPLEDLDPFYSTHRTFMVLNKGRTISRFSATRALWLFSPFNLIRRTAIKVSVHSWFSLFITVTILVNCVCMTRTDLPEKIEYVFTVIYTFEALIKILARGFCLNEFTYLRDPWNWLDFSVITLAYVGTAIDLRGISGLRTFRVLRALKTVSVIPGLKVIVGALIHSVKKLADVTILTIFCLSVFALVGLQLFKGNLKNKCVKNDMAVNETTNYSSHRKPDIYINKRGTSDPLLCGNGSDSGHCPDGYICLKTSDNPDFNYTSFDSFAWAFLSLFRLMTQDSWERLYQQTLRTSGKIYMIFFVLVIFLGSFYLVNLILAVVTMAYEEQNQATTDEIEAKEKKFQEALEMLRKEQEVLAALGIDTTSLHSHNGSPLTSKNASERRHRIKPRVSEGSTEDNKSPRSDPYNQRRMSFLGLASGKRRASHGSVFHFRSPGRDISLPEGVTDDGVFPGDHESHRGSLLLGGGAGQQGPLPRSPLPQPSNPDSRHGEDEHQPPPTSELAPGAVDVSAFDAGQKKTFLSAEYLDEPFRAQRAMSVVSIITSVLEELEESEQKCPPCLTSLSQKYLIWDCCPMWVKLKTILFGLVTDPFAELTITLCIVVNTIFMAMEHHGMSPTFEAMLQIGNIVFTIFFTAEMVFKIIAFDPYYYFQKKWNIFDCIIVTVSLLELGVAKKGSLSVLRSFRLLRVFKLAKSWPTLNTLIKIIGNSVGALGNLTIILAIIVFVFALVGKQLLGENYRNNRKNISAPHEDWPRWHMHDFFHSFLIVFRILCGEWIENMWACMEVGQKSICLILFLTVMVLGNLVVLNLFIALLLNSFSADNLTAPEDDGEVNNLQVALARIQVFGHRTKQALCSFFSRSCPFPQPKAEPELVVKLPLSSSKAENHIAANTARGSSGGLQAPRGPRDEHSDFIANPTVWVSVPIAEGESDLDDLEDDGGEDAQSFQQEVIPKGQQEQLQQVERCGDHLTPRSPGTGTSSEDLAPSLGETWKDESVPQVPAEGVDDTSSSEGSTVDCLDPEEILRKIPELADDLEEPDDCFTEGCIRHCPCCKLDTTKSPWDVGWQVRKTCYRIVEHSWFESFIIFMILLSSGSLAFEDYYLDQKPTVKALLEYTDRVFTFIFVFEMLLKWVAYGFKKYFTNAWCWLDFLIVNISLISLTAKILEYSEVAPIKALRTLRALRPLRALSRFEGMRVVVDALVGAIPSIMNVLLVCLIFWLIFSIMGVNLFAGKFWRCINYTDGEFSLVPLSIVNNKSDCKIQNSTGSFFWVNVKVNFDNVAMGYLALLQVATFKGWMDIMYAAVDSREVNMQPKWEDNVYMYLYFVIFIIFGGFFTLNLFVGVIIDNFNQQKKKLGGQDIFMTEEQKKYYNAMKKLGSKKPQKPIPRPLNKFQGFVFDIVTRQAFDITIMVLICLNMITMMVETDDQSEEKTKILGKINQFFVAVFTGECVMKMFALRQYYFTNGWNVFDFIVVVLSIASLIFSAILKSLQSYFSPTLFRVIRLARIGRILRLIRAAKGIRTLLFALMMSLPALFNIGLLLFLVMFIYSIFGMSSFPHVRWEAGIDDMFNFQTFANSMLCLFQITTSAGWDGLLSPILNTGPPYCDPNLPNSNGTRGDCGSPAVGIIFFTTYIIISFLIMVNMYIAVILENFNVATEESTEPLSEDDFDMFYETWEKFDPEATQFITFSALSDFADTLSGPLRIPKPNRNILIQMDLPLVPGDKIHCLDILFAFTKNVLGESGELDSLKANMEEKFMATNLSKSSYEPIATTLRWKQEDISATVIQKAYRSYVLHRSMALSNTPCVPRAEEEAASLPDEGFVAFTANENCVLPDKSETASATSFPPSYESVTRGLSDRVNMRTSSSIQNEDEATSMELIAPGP

Row | SMILES | IC50 [nM]
1 | O=C1NC[C@@H](C(=O)NC(c2cnc(OCC(F)(F)F)cn2)c2ccc(F)c(Cl)c2F)N1 (single isomer, unassigned) [Example 51B, N—((R or S)-(3-chloro-2,4-difluorophenyl)(5-(2,2,2-trifluoroethoxy)pyrazin-2-yl)methyl)-2-oxoimidazolidine-4-carboxamide] | 166
2 | O=C1NC[C@@H](C(=O)NC(CCc2ccc(Cl)cc2)c2ccc(F)c(Cl)c2F)N1 (single isomer, unassigned) [Example 52B, (4S)—N—((R or S)-1-(3-chloro-2,4-difluorophenyl)-3-(4-chlorophenyl)propyl)-2-oxoimidazolidine-4-carboxamide] | 4.3
3 | O=C1NC[C@@H](C(=O)NC(CC2CCCCC2)c2ccc(F)c(Cl)c2F)N1 (single isomer, unassigned) [Example 54A, (S)-N-((R or S)-1-(3-chloro-2,4-difluorophenyl)-2-cyclohexylethyl)-2-oxoimidazolidine-4-carboxamide] | 3.2
4 | O=C1NC[C@@H](C(=O)NC(c2cnc(C(F)(F)F)c(Cl)c2)c2ccc(Cl)c(C(F)(F)F)n2)N1 (single isomer, unassigned) [Example 56A, (S)-N-((R or S)-(5-chloro-6-(trifluoromethyl)pyridin-2-yl)(5-chloro-6-(trifluoromethyl)pyridin-3-yl)methyl)-2-oxoimidazolidine-4-carboxamide] | 2.5
5 | O=C1NC[C@@H](C(=O)NC(c2ccc(F)c(Cl)c2F)C2CCCCN2CC(F)(F)F)N1 (single isomer, unassigned) [Example 58A, (S)-N-((R or S)-(3-chloro-2,4-difluorophenyl) ((R or S)-1-(2,2,2-trifluoroethyl)piperidin-2-yl)methyl)-2-oxoimidazolidine-4-carboxamide] | 2010

The next lines start with the values.

Row | IC50 [nM] | SMILES
6 | 46 | O=C1NC[C@@H](C(=O)NC(CCc2ccc(Cl)cc2)c2ccc(F)c(Cl)c2F)N1 (single isomer, unassigned) [Example 52A, (4S)—N—((R or S)-1-(3-chloro-2,4-difluorophenyl)-3-(4-chlorophenyl)propyl)-2-oxoimidazolidine-4-carboxamide]
7 | 50 | O=C1NC[C@@H](C(=O)NC(CC2CCCCC2)c2ccc(F)c(Cl)c2F)N1 (single isomer, unassigned) [Example 54B, (S)-N-((R or S)-1-(3-chloro-2,4-difluorophenyl)-2-cyclohexylethyl)-2-oxoimidazolidine-4-carboxamide]
8 | 79 | O=C1NC[C@@H](C(=O)NC(c2cnc(OC(F)F)nc2)c2ccc(F)c(Cl)c2F)N1 (single isomer, unassigned) [Example 55A, (4S)—N—((R or S)-(3-chloro-2,4-difluorophenyl)(2-(difluoromethoxy)pyrimidin-5-yl)methyl)-2-oxoimidazolidine-4-carboxamide]
9 | 4.5 | O=C1NC[C@@H](C(=O)NC(c2cnc(C(F)(F)F)c(Cl)c2)c2ccc(Cl)c(C(F)(F)F)n2)N1 (single isomer, unassigned) [Example 56B, (S)-N-((R or S)-(5-chloro-6-(trifluoromethyl)pyridin-2-yl)(5-chloro-6-(trifluoromethyl)pyridin-3-yl)methyl)-2-oxoimidazolidine-4-carboxamide]
10 | 3.5 | N#Cc1cc(C(NC(=O)[C@@H]2CNC(=O)N2)c2ccc(OC(F)(F)F)cc2)ccc1Cl (single isomer, unassigned) [Example 57A, (S)-N-((R or S)-(4-chloro-3-cyanophenyl)(4-(trifluoromethoxy)phenyl)methyl)-2-oxoimidazolidine-4-carboxamide]
11 | 2.4 | N#Cc1cc(C(NC(=O)[C@@H]2CNC(=O)N2)c2ccc(OC(F)(F)F)cc2)ccc1Cl (single isomer, unassigned) [Example 57B, (S)-N-((R or S)-(4-chloro-3-cyanophenyl)(4-(trifluoromethoxy)phenyl)methyl)-2-oxoimidazolidine-4-carboxamide]
